The values below come from patent US20220242812A1, “SWELL1-LRRC8 COMPLEX MODULATORS” (Washington University, priority 2019, published 2022).

Read-outs that look alike come from different tables or passages of the source.

Data set [1] addresses hERG (Homo sapiens, UniProt Q12809). The conditions noted are these: cited from earlier work.
Data set [2] relates to non-T2D mice. In words: Metabolic phenotyping in non-T2D mice (KKAa control strain, lean chow-fed). In kind it is in vivo. The procedure: All compounds were dissolved in Kolliphor® EL (Sigma, #C5135).
Mice were fasted for 6 h prior to glucose tolerance tests (GTT). Baseline glucose levels at 0 min timepoint (fasting glucose, FG) were measured from blood sample collected from tail snipping using glucometer (Bayer Healthcare LLC). Either 1 g or 0.75 g D-Glucose/kg body weight were injected (i.p.) for lean or HFD mice, respectively and glucose levels were measured at 7, 15, 30, 60, 90 and 120 min timepoints after injection. For insulin tolerance tests (ITTs), the mice were fasted for 4 h. Similar to GTTs, the baseline blood glucose levels were measured at 0 min timepoint and 15, 30, 60, 90 and 120 min timepoints post-injection (i.p.) of insulin (HumulinR, 1 U/kg body weight for lean mice or 1.25 U/kg body weight for HFD mice). […] The collected plasma was then measured for insulin content by using Ultra-Sensitive Mouse Insulin ELISA Kit (Crystal Chem, #90080). All mice and treatment groups were assessed blindly while performing experiments.

Data set [3] addresses SWELL1 protein (Mus musculus, UniProt Q80WG5). The conditions noted are these: for SWELL1 protein expression: applied for 96 hours (10 μM).
[4] abbreviates: lean, non-T2D, glucose-tolerant mice, vs vehicle.

As to `CCCCC1(C2CCCC2)Cc2cc(OCCCC(=O)O)c(Cl)c(Cl)c2C1=O` (centres unmarked) [SN-401, 4-((2-butyl-6,7-dichloro-2-cyclopentyl-1-oxo-2,3-dihydro-1H-inden-5-yl)oxy)butanoic acid], in data set [1], the “Effect on hERG” value was “no effect”. Besides, the Hypoglycemia entry in data set [2] (control KKAa parental strain, 5 mg/kg x 4-10 days) is given as “does not cause hypoglycemia”. Further, in data set [2] (setting [4]), the FG entry is on record as “similar”, the GTT result is recorded as “similar” and the ITT result is given as “similar”. The EC50 (usually the midpoint of the concentration-response curve) in data set [3] was < 1000 nM. The molecule also returned an SWELL1 protein expression in data set [3] (3T3-F442A adipocytes) of 1.5 fold control expression. The molecule also registered an SWELL1 protein expression in data set [3] (3T3-F442A preadipocytes) of 3 fold control expression.
